This is an account of results in US8535931B2, “Non-photosynthetic micro-organisms enriched with organic selenium from seleno-hydroxyacid compounds and applications thereof in the field of nutrition, cosmetics and pharmacueuticals” (priority 2008, dated 2013).

For series [1] the following is noted: supplementation of the diet; cited from earlier work.
The subject of series [2] is Lactobacillus paracasei 3052-E000. Format: cell-based. As to conditions: for inhibitor effect on the growth or reduction in the biomass production yield: up to 20 mg/L (in selenium equivalent); for reduction in the biomass production yield: 48 h. The method, then:
In this experiment, the growth characteristics of the bacterium Lactobacillus paracasei were measured in the presence of different concentrations of selenium in the form of sodium selenite, selenomethionine, 2-hydroxy-4-methylseleno-butanoic acid and compared with the growth characteristics in the absence of additives.
The pre-culture of the strain Lactobacillus paracasei 3052-E000 is carried out in liquid MRS medium, at 42° C., without agitation for 24 h. The culture of the strain Lactobacillus paracasei 3052-E000 was carried out from an inoculum (1.10^7 UFC/ml) of the above pre-culture in 100 mL of MRS medium, at pH=6.4 and at a temperature of 42° C. (without agitation).
The cultures were monitored by absorbance measurements at 550 nm and CFU counting carried out on MRS plate.
The concentrations tested for the addition of selenium selenite are 0.5 mg/L, 2 mg/L, 10 mg/L and 20 mg/L in selenium equivalent, i.e. respectively 1.11 mg/L, 4.44 mg/L, 22.22 mg/L and 44.44 mg/L of sodium selenite. The graph of FIG. 4 makes it possible to visualise the growth of the strain Lactobacillus paracasei 3052-E000 in the presence of sodium selenite.
The concentrations tested for the addition of selenomethionine are 0.5 mg/L, 2 mg/L, 10 mg/L and 20 mg/L in selenium equivalent, i.e. respectively 1.25 mg/L, 5 mg/L, 25 mg/L and 50 mg/L of selenomethionine.
(§1) The concentrations tested for the addition of 2-hydroxy-4-methylseleno-butanoic acid are 0.5 mg/L, 2 mg/L, 10 mg/L and 20 mg/L in selenium equivalent, i.e. respectively 1.25 mg/L, 5 mg/L, 25 mg/L and 50 mg/L of 2-hydroxy-4-methylseleno-butanoic acid (THD-177, Tetrahedron, France, CAS: 873660-49-2).
In order to complete the study of the impact of the addition of 2-hydroxy-4-methylseleno-butanoic acid, at higher values, concentrations of 40 and 60 mg/L were tested under the same conditions as previously.

Series [3] has as its system Saccharomyces cerevisiae 3053-E000. The series is classed as cell-based. Particulars: for yield of biomass obtained (change): 48 h; for concentration from which an effect on growth / biomass yield begins to show: YPG medium, pH 4, 37° C. The method, then: In the experiments described, the growth characteristics of the yeast Saccharomyces cerevisiae 3053 E000 were measured in the presence of different concentrations of selenium in the form of sodium selenite, selenomethionine, or 2-hydroxy-4-methylseleno-butanoic acid and compared to the growth characteristics in the absence of additives (control). The pre-culture of the strain Saccharomyces cerevisiae 3053-E000 is carried out in liquid YPG medium, at 37° C., under orbital agitation (250 rpm) for 24 h.
The culture is formed from an inoculum (1.10^6 UFC/ml) of the pre-culture described previously in 100 mL of YPG medium, at pH=4 at a temperature of 37° C. under agitation (250 rpm) and according to the following conditions:
The cultures of Saccharomyces cerevisiae 3053-E000 were monitored by absorbance measurements at 550 nm and by CPU counting on YPG gelose plates.
The concentrations tested for the addition of selenium selenite are 0.5 mg/L, 10 mg/L and 20 mg/L in selenium equivalent, i.e. respectively: 1.1 mg/L, 22.22 mg/L and 44.44 mg/L of sodium selenite.
The concentrations tested for the addition of selenomethionine are 0.5 mg/L, 2 mg/L, 10 mg/L and 20 mg/L in selenium equivalent, i.e. respectively 1.25 mg/L, 5 mg/L, 25 mg/L and 50 mg/L of selenomethionine
as §1

[4] abbreviates: 10 mg/L (in selenium equivalent).
Where [5] appears, read: 20 mg/L (in selenium equivalent).
Setting [6] is: 10 and 20 mg/L (in selenium equivalent).

Structures are written as SMILES. Like-named read-outs stand apart in the source and are kept apart here.

Regarding `C[Se]CC[C@H](N)C(=O)O` [L(+)-selenomethionine], the “toxicity compared with an intake in the form of sodium selenite” value in series [1] is on record as “much less toxic”.
For `C[Se]CCC(O)C(=O)O` (stereo not shown) [THD 177, 2-hydroxy-4-methylseleno-butanoic acid], the “inhibitor effect on the growth and the biomass yield” value in series [2] (40 and 60 mg/L) is given as “no inhibitor effect was observed”. Further, in series [2], the “inhibitor effect on the growth or reduction in the biomass production yield” value is recorded as “does not show an inhibitor effect”. In addition, in series [3] (setting [4]), the “viability reduced by” value is listed as 36% and the “yield of biomass obtained (change)” value is reported as −15%. Further, in series [3] (setting [5]), the “biomass yield reduced by” value amounted to 36% and the “viability reduced by” value came out at 50%. Also, the “concentration from which an effect on growth / biomass yield begins to show” value in series [3] was 10 mg/L (in selenium equivalent).
In the case of `C[Se]CC[C@H](N)C(=O)O` [selenomethionine], the “inhibitor effect on the growth or reduction in the biomass production yield” value in series [2] was “does not show an inhibitor effect”. Moreover, the “yield of biomass obtained (change)” value in series [3] (2 mg/L (in selenium equivalent)) is −29%; in series [3] (setting [4]), −50%. The “concentration from which an effect on growth / biomass yield begins to show” value in series [3] was 2 mg/L (in selenium equivalent).
On to `O=[Se](O)O` [sodium selenite], for which the “reduction in the biomass production yield” value in series [2] (0.5 mg/L (in selenium equivalent)) is recorded as 25%; in series [2] (setting [6]), 90%. In series [2] (setting [6]), the “toxicity on Lactobacillus paracasei” value is given as “shows a toxicity”. Also, the “concentration from which an inhibitor effect on growth begins to show” value in series [2] (MRS medium, pH 6.4, 42° C.) is 0.5 mg/L (in selenium equivalent). Besides, the “yield of biomass obtained (change)” value in series [3] (setting [4]) is reported as −50%. Also, the “toxicity for Saccharomyces cerevisiae” value in series [3] (setting [5]) is “very toxic”. Further, the “concentration from which an effect on growth / biomass yield begins to show” value in series [3] is 10 mg/L (in selenium equivalent).
